Legend:
Format in all cases: biochemical
Pim-1 = target: T1, Pim-1 (Homo sapiens, UniProt P11309); assay: Pim-1 kinase assay (Pim enzyme assays, Example A); details: 1 mM ATP; read-out: Pim1 IC50
T1 construct: purchased Invitrogen PV3503
Protocol: (§1) Pim-1 and Pim-3 kinase assays-20 μL reactions were run in white 384 well polystyrene plates dotted with 0.8 μL compound/DMSO in the assay buffer (50 mM Tris, pH 7.5, 0.01% Tween-20, 5 mM mgCl2, 0.01% BSA, 5 mM DTT), containing 0.05 μM Biotin-labeled BAD peptide substrate (AnaSpec 62269), 1 mM ATP, and […] (Pim-1, Invitrogen PV3503) or […] (Pim-3, Millipore 14-738) enzyme for 1 h at 25° C. Reactions were stopped by addition of 10 μL STOP Buffer (150 mM Tris, pH=7.5, 150 mM NaCl, 75 mM EDTA, 0.01% Tween-20, 0.3% BSA,) supplemented with Phospho-Bad (Ser 12) Antibody (Cell Signaling 9291) diluted 666-fold, and Streptavidin donor beads (PerkinElmer 6760002) along with Protein-A acceptor beads (PerkinElmer 6760137) at 15 μg/mL each. Supplementation of the STOP buffer with beads and stopping the reactions were done under reduced light. Prior to the stopping reactions STOP buffer with beads was preincubated for 1 h in the dark at room temperature. After stopping the reactions, plates were incubated for 1 h in the dark at room temperature before reading on a PHERAstar FS plate reader (BMG Labtech) under reduced light.

Pim2 [1] = target: T2, Pim2 (Homo sapiens, UniProt Q9P1W9); assay: Pim-2 kinase assay (Pim enzyme assays, Example A); details: 1 mM ATP; read-out: Pim2 IC50
T2 construct: purchased Invitrogen PV3649
Protocol: (§2) Pim-2 kinase assay—20 μL reactions were run in white 384 well polystyrene plates dotted with 0.8 μL compound/DMSO in the assay buffer (50 mM Tris, pH 7.5, 0.01% Tween-20, 5 mM mgCl2, 0.01% BSA, 5 mM DTT), containing 0.05 μM Fluorescein-labeled CREBtide peptide substrate (Invitrogen PV3508), 1 mM ATP, and 1 nM enzyme (Invitrogen PV3649) for 2 h at 25° C. Reactions were stopped by addition of 10 μL TR-FRET Dilution Buffer (Invitrogen PV3574) with 30 mM EDTA and 1.5 nM LanthaScreen Tb-CREB pSer133 antibody (Invitrogen PV3566). After 30 min. incubation at room temperature, plates were read on a PHERAstar FS plate reader (BMG Labtech).

Pim-3 = target: T3, Pim-3 (Homo sapiens, UniProt Q86V86); assay: Pim-3 kinase assay (Pim enzyme assays, Example A); details: 1 mM ATP; read-out: Pim3 IC50
T3 construct: purchased Millipore 14-738
Protocol: as §1

Pim2 [2] = target: T2, Pim2; assay: Pim2 assay analogous to Example A performed under Km ATP conditions; details: Km ATP conditions rather than 1 mM ATP
Protocol: as §2
Although the above in vitro assays are conducted at 1 mM ATP compounds can also be evaluated for potency and in vitro activity against PIM targets utilizing Km conditions, where the concentration of ATP is set to the Km value and the assay is more sensitive to PIM inhibition activity.

T1 sequence (P11309 whole entry): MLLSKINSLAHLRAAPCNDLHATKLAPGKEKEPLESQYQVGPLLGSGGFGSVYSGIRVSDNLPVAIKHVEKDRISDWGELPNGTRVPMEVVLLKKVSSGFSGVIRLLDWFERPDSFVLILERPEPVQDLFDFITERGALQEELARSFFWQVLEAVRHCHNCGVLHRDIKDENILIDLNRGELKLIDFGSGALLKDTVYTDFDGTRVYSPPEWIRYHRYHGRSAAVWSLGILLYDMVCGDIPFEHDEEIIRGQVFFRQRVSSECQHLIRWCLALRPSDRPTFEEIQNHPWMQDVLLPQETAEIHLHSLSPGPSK
T2 sequence (Q9P1W9 whole entry): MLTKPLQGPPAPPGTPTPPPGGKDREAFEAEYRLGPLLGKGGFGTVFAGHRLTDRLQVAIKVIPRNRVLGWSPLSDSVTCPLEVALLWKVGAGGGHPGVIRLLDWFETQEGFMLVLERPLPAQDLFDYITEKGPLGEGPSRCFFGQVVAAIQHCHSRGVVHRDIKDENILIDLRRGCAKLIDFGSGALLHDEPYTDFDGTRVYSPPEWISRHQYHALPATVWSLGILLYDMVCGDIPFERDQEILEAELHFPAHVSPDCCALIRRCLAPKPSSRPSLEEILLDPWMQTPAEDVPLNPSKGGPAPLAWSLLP

IC50 (Pim-1) [nM]	IC50 (Pim2 [1]) [nM]	IC50 (Pim-3) [nM]	IC50 (Pim2 [2]) [nM]	Compound
≤ 100	100 to 1000	≤ 100		C[C@@H]1C[C@H](N)CN(c2ccncc2NC(=O)c2nc3cc(N4CCOCC4=O)ccc3cc2N)C1 [Example 50, 3-Amino-N-{4-[(3S,5R)-3-amino-5-methylpiperidin-1-yl]pyridin-3-yl}-7-(3-oxomorpholin-4-yl)quinoline-2-carboxamide]
≤ 100	1000 to 10000	≤ 100		C[C@H]1CN(c2ccncc2NC(=O)c2nc3cc(N4CCOCC4=O)ccc3cc2N)C[C@@H](N)[C@@H]1O [Example 51, 3-Amino-N-{4-[(3R,4R,5S)-3-amino-4-hydroxy-5-methylpiperidin-1-yl]pyridin-3-yl}-7-(3-oxomorpholin-4-yl)quinoline-2-carboxamide]
≤ 100	> 2000	≤ 100		C[C@H]1CN(c2ccncc2NC(=O)c2nc3cc(N4CCOCC4)ccc3cc2N)C[C@@H](N)[C@H]1n1ccnn1 [Example 55, 3-Amino-N-{4-[(3R,4S,5S)-3-amino-5-methyl-4-(1H-1,2,3-triazol-1-yl)piperidin-1-yl]pyridin-3-yl}-7-morpholin-4-ylquinoline-2-carboxamide]
≤ 100	1000 to 10000	≤ 100		COC(=O)N[C@@H]1[C@H](N)CN(c2ccncc2NC(=O)c2nc3cc(N4CCOCC4)ccc3cc2N)C[C@@H]1C [Example 59, Methyl [(3R,4S,5S)-3-amino-1-(3-{[(3-amino-7-morpholin-4-ylquinolin-2-yl)carbonyl]amino}pyridin-4-yl)-5-methylpiperidin-4-yl]carbamate]
≤ 100	1000 to 10000	≤ 100		COC(=O)N[C@@H]1[C@H](N)CN(c2ccncc2NC(=O)c2nc3cc(N4CCN(C)CC4)ccc3cc2N)C[C@@H]1C [Example 60, Methyl {(3R,4S,5S)-3-amino-1-[3-({[3-amino-7-(4-methylpiperazin-1-yl)quinolin-2-yl]carbonyl}amino)pyridin-4-yl]-5-methylpiperidin-4-yl}carbamate]

Further lines, the molecule ahead of its results:

Compound	IC50 (Pim-1) [nM]	IC50 (Pim2 [1]) [nM]	IC50 (Pim-3) [nM]	IC50 (Pim2 [2]) [nM]
CCc1ccc2cc(N)c(C(=O)Nc3cnc4c(c3N3CCC[C@H](N)C3)CCC4O)nc2c1 (single isomer, unassigned) [22 isomer 1]	> 40	> 2000	> 40	100 to 1000
NC(=O)c1ccccc1-c1ccc2cc(N)c(C(=O)Nc3cnccc3N3CCC[C@H](N)C3)nc2c1 [Example 6, 3-Amino-7-[2-(aminocarbonyl)phenyl]-N-{4-[(3S)-3-aminopiperidin-1-yl]pyridin-3-yl}quinoline-2-carboxamide]	> 40	> 2000	> 40	< 100
C[C@H]1CN(c2ccncc2NC(=O)c2nc3cc(N4CCN(C)C(=O)C4)ccc3cc2N)C[C@@H](N)[C@H]1n1ccnn1 [Example 52, 3-Amino-N-{4-[(3R,4S,5S)-3-amino-5-methyl-4-(1H-1,2,3-triazol-1-yl)piperidin-1-yl]pyridin-3-yl}-7-(4-methyl-3-oxopiperazin-1-yl)quinoline-2-carboxamide]	≤ 100	> 2000	≤ 100	
C[C@H]1CN(c2ccncc2NC(=O)c2nc3cc(C4CCOCC4)ccc3cc2N)C[C@@H](N)[C@H]1n1ccnn1 [Example 53, 3-Amino-N-{4-[(3R,4S,5S)-3-amino-5-methyl-4-(1H-1,2,3-triazol-1-yl)piperidin-1-yl]pyridin-3-yl}-7-(tetrahydro-2H-pyran-4-yl)quinoline-2-carboxamide]	≤ 100	1000 to 10000	≤ 100	
C[C@H]1CN(c2ccncc2NC(=O)c2nc3cc(N4CCN(C)CC4)ccc3cc2N)C[C@@H](N)[C@H]1n1ccnn1 [Example 54, 3-Amino-N-{4-[(3R,4S,5S)-3-amino-5-methyl-4-(1H-1,2,3-triazol-1-yl)piperidin-1-yl]pyridin-3-yl}-7-(4-methylpiperazin-1-yl)quinoline-2-carboxamide]	≤ 100	> 2000	≤ 100	
C[C@H]1CN(c2ccncc2NC(=O)c2nc3cc(C4CCN(C)CC4)ccc3cc2N)C[C@@H](N)[C@H]1n1ccnn1 [Example 56, 3-Amino-N-{4-[(3R,4S,5S)-3-amino-5-methyl-4-(1H-1,2,3-triazol-1-yl)piperidin-1-yl]pyridin-3-yl}-7-(1-methylpiperidin-4-yl)quinoline-2-carboxamide]	≤ 100	1000 to 10000	≤ 100	
CCc1ccc2cc(N)c(C(=O)Nc3cnccc3N3C[C@@H](N)[C@@H](n4ccnn4)[C@@H](C)C3)nc2c1 [Example 57, 3-Amino-N-{4-[(3R,4S,5S)-3-amino-5-methyl-4-(1H-1,2,3-triazol-1-yl)piperidin-1-yl]pyridin-3-yl}-7-ethylquinoline-2-carboxamide]	≤ 100	100 to 1000	≤ 100	
CCc1ccc2cc(N)c(C(=O)Nc3cnccc3N3C[C@@H](N)[C@@H](NC(=O)OC)[C@@H](C)C3)nc2c1 [Example 58, Methyl [(3R,4S,5S)-3-amino-1-(3-{[(3-amino-7-ethylquinolin-2-yl)carbonyl]amino}pyridin-4-yl)-5-methylpiperidin-4-yl]carbamate]	≤ 100	100 to 1000	≤ 100	
COC(=O)N[C@@H]1[C@H](N)CN(c2ccncc2NC(=O)c2nc3cc(C4CCOCC4)ccc3cc2N)C[C@@H]1C [Example 61, Methyl {(3R,4S,5S)-3-amino-1-[3-({[3-amino-7-(tetrahydro-2H-pyran-4-yl)quinolin-2-yl]carbonyl}amino)pyridin-4-yl]-5-methylpiperidin-4-yl}carbamate]	≤ 100	100 to 1000	≤ 100	
COC(=O)N[C@@H]1[C@H](N)CN(c2ccncc2NC(=O)c2nc3cc(C4CCN(C)CC4)ccc3cc2N)C[C@@H]1C [Example 62, Methyl {(3R,4S,5S)-3-amino-1-[3-({[3-amino-7-(1-methylpiperidin-4-yl)quinolin-2-yl]carbonyl}amino)pyridin-4-yl]-5-methylpiperidin-4-yl}carbamate]	≤ 100	1000 to 10000	≤ 100	
